Molecular target: truncated Polθ protein (Polθ-Hel containing the helicase domain (67-894)) (Homo sapiens (Human), UniProt O75417)
Assay: Polθ ATPase assay (Biological Assay 1, ADP-Glo luminescence)
Type: biochemical
Conditions: Polθ-Hel 0.5 nM, DNA substrate 500 nM, ATP 60 μM, 23° C.; read-out: Pole ATPase assay IC50
Protocol: The Polθ ATPase assay was used to evaluate inhibitors of Polθ ATPase activity, in vitro. Experiments were performed using a truncated Polθ protein (Polθ-Hel containing the helicase domain (67-894), ATP and a DNA single strand Oligo (5′-CTGTCCTGCATGATG-3′) in the Polθ assay buffer (20 mM Tis-HCl (pH 8.8), MgCl2 5 mM, tween20 0.01%, NP40 0.01%, BSA 0.01%, DTT 1 mM). 2 μL of assay buffer containing Pole-Hel protein (0.5 nM) and DNA substrate (500 nM) was transferred into assay ready plates, containing 0.04 μL of compounds diluted in DMSO. After a 30 minutes incubation at 23° C. in the dark, the reaction was triggered by adding 2 μL of ATP (60 μM), in assay buffer. After 60 minutes at 23° C., 4 μl of ADP-Glo™ Reagent (Glo 1) was added followed by 40 minutes of incubation, then 8 μl of ADP-Glom kinase Detection Reagent (Glo 2) followed by 60 minutes of incubation at 23° C. Luminescence was then measured using Tecan F200 infinite plate reader. Raw data were analysed using GeneData to generate IC50 values.
The Polθ ATPase assay described in Biological Assay 1 above was used to evaluate inhibitors of Polθ ATPase activity for the compounds described in the Experimental Part B above, in vitro.

Chain of truncated Polθ protein (Polθ-Hel containing the helicase domain (67-894)) (O75417 67-894): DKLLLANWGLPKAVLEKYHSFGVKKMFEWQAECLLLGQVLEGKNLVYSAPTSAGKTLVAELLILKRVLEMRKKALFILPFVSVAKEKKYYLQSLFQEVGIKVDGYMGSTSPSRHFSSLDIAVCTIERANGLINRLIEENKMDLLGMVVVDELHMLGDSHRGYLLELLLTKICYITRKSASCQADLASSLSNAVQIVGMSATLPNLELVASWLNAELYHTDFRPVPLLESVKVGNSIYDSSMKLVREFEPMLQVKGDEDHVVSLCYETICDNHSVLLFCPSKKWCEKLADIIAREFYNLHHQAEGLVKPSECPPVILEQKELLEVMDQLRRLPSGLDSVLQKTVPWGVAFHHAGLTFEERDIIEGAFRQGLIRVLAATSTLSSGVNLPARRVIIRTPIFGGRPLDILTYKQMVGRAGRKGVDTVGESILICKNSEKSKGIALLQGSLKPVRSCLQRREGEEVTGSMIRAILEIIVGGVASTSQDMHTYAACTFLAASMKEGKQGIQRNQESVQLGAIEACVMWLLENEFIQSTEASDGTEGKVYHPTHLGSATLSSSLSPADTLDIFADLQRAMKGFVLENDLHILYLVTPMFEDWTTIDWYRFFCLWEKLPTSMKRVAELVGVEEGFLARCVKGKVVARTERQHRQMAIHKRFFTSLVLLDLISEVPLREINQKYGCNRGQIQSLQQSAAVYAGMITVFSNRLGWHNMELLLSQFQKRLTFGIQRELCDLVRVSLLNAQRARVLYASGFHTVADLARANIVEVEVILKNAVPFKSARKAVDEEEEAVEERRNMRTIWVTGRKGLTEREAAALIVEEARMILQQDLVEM

SMILES | IC50
COc1cnc(Cl)cc1-c1cc(C)ncc1C(=O)Nc1nc2cnc(NC3CCC(O)CC3)nc2s1 (stereo not drawn) [Example 48, 2′-chloro-N-{5-[(4-hydroxycyclohexyl)amino]-[1,3]thiazolo[5,4-d]pyrimidin-2-yl}-5′-methoxy-6-methyl-[4,4′-bipyridine]-3-carboxamide] | < 100 nM
COc1cnc(Cl)cc1-c1cc(C)ncc1C(=O)Nc1nc2cnc(N3CCOC[C@H]3C)nc2s1 [Example 50, 2′-chloro-5′-methoxy-6-methyl-N-{5-[(3R)-3-methylmorpholin-4-yl]-[1,3]thiazolo[5,4-d]pyrimidin-2-yl}-[4,4′-bipyridine]-3-carboxamide] | < 100 nM
COc1cnc(Cl)cc1-c1cc(C)ncc1C(=O)Nc1nc2cnc(N3CCOC[C@@H]3C)nc2s1 [Example 51, 2′-chloro-5′-methoxy-6-methyl-N-{5-[(3S)-3-methylmorpholin-4-yl]-[1,3]thiazolo[5,4-d]pyrimidin-2-yl}-[4,4′-bipyridine]-3-carboxamide] | < 100 nM
COc1cnc(Cl)cc1-c1cc(C)ncc1C(=O)Nc1nc2cnc(NC(C)C)nc2s1 [Example 52, 2′-chloro-5′-methoxy-6-methyl-N-{5-[(propan-2-yl)amino]-[1,3]thiazolo[5,4-d]pyrimidin-2-yl}-[4,4′-bipyridine]-3-carboxamide] | < 100 nM
COc1cnc(Cl)cc1-c1cc(C)ncc1C(=O)Nc1nc2cnc(N3CCC4(CC3)COC4)nc2s1 [Example 53, 2′-chloro-5′-methoxy-6-methyl-N-(5-{2-oxa-7-azaspiro[3.5]nonan-7-yl}-[1,3]thiazolo[5,4-d]pyrimidin-2-yl)-[4,4′-bipyridine]-3-carboxamide] | < 100 nM
COc1cnc(Cl)cc1-c1cc(C)ncc1C(=O)Nc1nc2cnc(N3CC4CCC(C3)N4)nc2s1 [Example 54, 2′-chloro-N-(5-{3,8-diazabicyclo[3.2.1]octan-3-yl}-[1,3]thiazolo[5,4-d]pyrimidin-2-yl)-5′-methoxy-6-methyl-[4,4′-bipyridine]-3-carboxamide] | < 100 nM
COc1cnc(Cl)cc1-c1cc(C)ncc1C(=O)Nc1nc2cnc(N3CCNCC3)nc2s1 [Example 55, 2′-chloro-5′-methoxy-6-methyl-N-[5-(piperazin-1-yl)-[1,3]thiazolo[5,4-d]pyrimidin-2-yl]-[4,4′-bipyridine]-3-carboxamide] | < 100 nM
COc1cnc(Cl)cc1-c1cc(C)ncc1C(=O)Nc1nc2ccc(N3CCCC3=O)cc2s1 [Example 56, 2′-chloro-5′-methoxy-6-methyl-N-[6-(2-oxopyrrolidin-1-yl)-1,3-benzothiazol-2-yl]-[4,4′-bipyridine]-3-carboxamide] | < 100 nM
COc1cnc(Cl)cc1-c1cc(C)ncc1C(=O)Nc1nc2ccc(N3CCOCC3=O)cc2s1 [Example 57, 2′-chloro-5′-methoxy-6-methyl-N-[6-(3-oxomorpholin-4-yl)-1,3-benzothiazol-2-yl]-[4,4′-bipyridine]-3-carboxamide] | < 100 nM
COc1cnc(Cl)cc1-c1cc(C)ncc1C(=O)Nc1nc2ccc(N3CCN(C)C3=O)cc2s1 [Example 58, 2′-chloro-5′-methoxy-6-methyl-N-[6-(3-methyl-2-oxoimidazolidin-1-yl)-1,3-benzothiazol-2-yl]-[4,4′-bipyridine]-3-carboxamide] | < 100 nM
COc1cnc(Cl)cc1-c1cc(C)ncc1C(=O)Nc1nc2ccc(N3CCOC3=O)cc2s1 [Example 59, 2′-chloro-5′-methoxy-6-methyl-N-[6-(2-oxo-1,3-oxazolidin-3-yl)-1,3-benzothiazol-2-yl]-[4,4′-bipyridine]-3-carboxamide] | < 100 nM
COc1cnc(Cl)cc1-c1cc(C)ncc1C(=O)Nc1nc2ccc(N3CCNC3=O)cc2s1 [Example 60, 2′-chloro-5′-methoxy-6-methyl-N-[6-(2-oxoimidazolidin-1-yl)-1,3-benzothiazol-2-yl]-[4,4′-bipyridine]-3-carboxamide] | < 100 nM
COc1cnc(Cl)cc1-c1cc(C)ncc1C(=O)Nc1nc2cnc(N3CCCCC3=O)cc2s1 [Example 61, 2′-chloro-5′-methoxy-6-methyl-N-[6-(2-oxopiperidin-1-yl)-[1,3]thiazolo[4,5-c]pyridin-2-yl]-[4,4′-bipyridine]-3-carboxamide] | < 100 nM
COc1cnc(Cl)cc1-c1cc(C)ncc1C(=O)Nc1nc2cnccc2s1 [Example 62, 2′-chloro-5′-methoxy-6-methyl-N-{[1,3]thiazolo[4,5-c]pyridin-2-yl}-[4,4′-bipyridine]-3-carboxamide] | < 100 nM
COc1cnc(Cl)cc1-c1cc(C)ncc1C(=O)Nc1nc2cc(Cl)ncc2s1 [Example 63, 2′-chloro-N-{6-chloro-[1,3]thiazolo[5,4-c]pyridin-2-yl}-5′-methoxy-6-methyl-[4,4′-bipyridine]-3-carboxamide] | < 100 nM
COc1cnc(Cl)cc1-c1cc(C)ncc1C(=O)Nc1nc2cnc(Cl)cc2s1 [Example 64, 2′-chloro-N-{6-chloro-[1,3]thiazolo[4,5-c]pyridin-2-yl}-5′-methoxy-6-methyl-[4,4′-bipyridine]-3-carboxamide] | < 100 nM
COc1cnc(Cl)cc1-c1cc(C)ncc1C(=O)Nc1nc2cnc(N3CCOCC3)cc2s1 [Example 65, 2′-chloro-5′-methoxy-6-methyl-N-[6-(morpholin-4-yl)-[1,3]thiazolo[4,5-c]pyridin-2-yl]-[4,4′-bipyridine]-3-carboxamide] | < 100 nM
COc1cnc(Cl)cc1-c1cc(C)ncc1C(=O)Nc1nc2ccc(S(=O)(=O)N(C)C)cc2s1 [Example 66, 2′-chloro-N-[6-(dimethylsulfamoyl)-1,3-benzothiazol-2-yl]-5′-methoxy-6-methyl-[4,4′-bipyridine]-3-carboxamide] | < 100 nM
COc1cnc(Cl)cc1-c1cc(C)ncc1C(=O)Nc1nc2ncc(N3CCOCC3)cc2s1 [Example 67, 2′-chloro-5′-methoxy-6-methyl-N-[6-(morpholin-4-yl)-[1,3]thiazolo[4,5-b]pyridin-2-yl]-[4,4′-bipyridine]-3-carboxamide] | < 100 nM
COc1cnc(Cl)cc1-c1cc(C)ncc1C(=O)Nc1nc2ccccc2s1 [Example 69, N-(1,3-benzothiazol-2-yl)-2′-chloro-5′-methoxy-6-methyl-[4,4′-bipyridine]-3-carboxamide] | < 100 nM
COc1cnc(Cl)cc1-c1cc(C)ncc1C(=O)Nc1nc2ncc(N3CCCCC3=O)cc2s1 [Example 70] | < 100 nM
COc1cnc(Cl)cc1-c1cc(C)ncc1C(=O)Nc1nc2ncc(N3CCC(O)CC3)cc2s1 [Example 71, 2′-chloro-N-[6-(4-hydroxypiperidin-1-yl)-[1,3]thiazolo[4,5-b]pyridin-2-yl]-5′-methoxy-6-methyl-[4,4′-bipyridine]-3-carboxamide] | < 100 nM
COc1cnc(Cl)cc1-c1cc(C)ncc1C(=O)Nc1nc2ccc(N3CCOCC3)nc2s1 [Example 72, 2′-chloro-5′-methoxy-6-methyl-N-[5-(morpholin-4-yl)-[1,3]thiazolo[5,4-b]pyridin-2-yl]-[4,4′-bipyridine]-3-carboxamide] | < 100 nM
COc1cnc(Cl)cc1-c1cc(C)ncc1C(=O)Nc1nc2ccc(N3CCCCC3=O)nc2s1 [Example 73, 2′-chloro-5′-methoxy-6-methyl-N-[5-(2-oxopiperidin-1-yl)-[1,3]thiazolo[5,4-b]pyridin-2-yl]-[4,4′-bipyridine]-3-carboxamide] | < 100 nM

Reference: patent publication US20240327430A1 (Breakpoint Therapeutics GmbH, priority 2023, published 2024)
